pIC50: −log10 of the molar value.

The target of test [1] is T1, Protein farnesyltransferase (Homo sapiens, UniProt P49354+P49356). Description: Inhibition of FTase (unknown origin) using H-ras as substrate. In kind it is protein-complex assay.
The target of test [2] is T1, Protein farnesyltransferase. Description: Inhibition of FTase (unknown origin) expressed in mouse NIH-3T3 cells transfected with human H-Ras assessed as decrease in farnesylation of H-Ras after 24 hrs by chemoluminescence assay. In kind it is cell-based.
Test [3] has as its target T2, Geranylgeranyl transferase type I (Homo sapiens, UniProt P49354+P53609). Description: Inhibition of GGTase1 (unknown origin) expressed in mouse NIH-3T3 cells transfected with k-Ras4B assessed as decrease in geranylgeranylation of k-Ras4B after 24 hrs by chemoluminescence assay. The test is classed as cell-based.
Test [4] concerns the target geranylgeranyltransferase type-I (Rattus norvegicus, UniProt P53610+Q04631). The experiment in a line: Inhibition of rat brain GGTase1 assessed as decrease in transfer of [3H]H]geranylgeranyl from [3H]geranylgeranyl PPi to H-Ras-CVLL after 30 mins by liquid scintillation counting method.
In test [5] the target is T1, Protein farnesyltransferase. Description: Inhibition of FTase isolated from human Burkitt's lymphoma cells assessed as decrease in transfer of [3H]farnesyl from [3H]farnesyl PPi to H-Ras-CVLS.
Test [6] deals with T2, Geranylgeranyl transferase type I. The experiment in a line: Inhibition of GGTase1 isolated from human Burkitt's lymphoma cells assessed as decrease in transfer of [3H]H]geranylgeranyl from [3H]geranylgeranyl PPi to H-Ras-CVLL.
Test [7] has the same target. The experiment in a line: Inhibition of GGTase1 (unknown origin). The test is classed as protein-complex assay.
Test [8] addresses T1, Protein farnesyltransferase. Description: Inhibition of FTase (unknown origin). In kind it is protein-complex assay.
In test [9] the target is T3, Glycylpeptide N-tetradecanoyltransferase (Neosartorya fumigata (strain ATCC MYA-4609 / Af293 / CBS 101355 / FGSCA1100) (Aspergillus fumigatus), UniProt Q9UVX3).
T3 sequence (Q9UVX3 whole entry): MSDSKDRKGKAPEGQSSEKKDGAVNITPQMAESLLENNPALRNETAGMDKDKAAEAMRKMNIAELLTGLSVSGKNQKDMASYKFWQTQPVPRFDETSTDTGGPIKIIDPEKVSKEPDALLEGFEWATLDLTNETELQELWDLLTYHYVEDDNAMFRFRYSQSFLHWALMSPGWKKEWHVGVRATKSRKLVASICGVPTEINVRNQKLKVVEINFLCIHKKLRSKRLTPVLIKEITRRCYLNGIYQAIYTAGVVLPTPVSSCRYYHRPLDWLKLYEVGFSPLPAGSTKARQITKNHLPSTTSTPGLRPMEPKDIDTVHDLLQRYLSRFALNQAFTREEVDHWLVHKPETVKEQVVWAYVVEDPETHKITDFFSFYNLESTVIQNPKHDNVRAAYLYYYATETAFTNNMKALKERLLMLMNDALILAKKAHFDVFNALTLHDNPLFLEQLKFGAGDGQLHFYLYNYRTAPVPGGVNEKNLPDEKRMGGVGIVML
The experiment in a line: Inhibition of recombinant Aspergillus fumigatus NMT (Gln86 to Leu492 residues) expressed in Escherichia coli BL21(DE3) pLysS cells using [3H]-myristoyl coenzyme A/CAP5.5 as substrate after 20 mins by scintillation proximity assay. In general terms: Scintillation proximity formats need no separation of bound from free tracer.

As usually defined, the pIC50 is the IC50 on a negative log10 scale, so that one unit is a factor of ten. For `O=C(c1cn(Cc2cncn2Cc2ccc(Br)cc2)cc1-c1cccc2ccccc12)N1CCOCC1`, the pIC50 in [1] is 9.10.

Consider `COC(=O)[C@H](CC(C)C)NC(=O)c1ccc(NC[C@@H](N)CS)cc1-c1ccccc1`, for which the results for the pIC50 in test [2] and in test [3] were less than 4.52 and 5.70, respectively.

As for `NC(=O)N1CCC(CC(=O)N2CCC([C@H]3c4ncc(Br)cc4CCc4cc(Cl)cc(Br)c43)CC2)CC1` [LONAFARNIB], the pIC50 in [4] is less than 6.00.

On to `CC(C)C[C@H](NC(=O)c1ccc(NC[C@@H](N)CS)cc1-c1cccc2ccccc12)C(=O)O`, for which the pIC50 was 6.70 in test [5] and 7.30 in test [6].

With `COC(=O)[C@H](CCSC)NC(=O)CN1C[C@H](N(C)C(=O)[C@H](N)CS)N=C(c2ccccc2)c2ccccc21`, the pIC50 in test [7] was less than 6.00; in test [8], 7.39.

As for `Cc1c(NS(=O)(=O)c2c(Cl)cc(-c3ccnc(N4CCNCC4)c3)cc2Cl)c(CC(C)C)nn1C` [ZELENIRSTAT], the pIC50 in test [9] is 7.92.

Source of the values: ChEMBL document CHEMBL4184146, “Interrogating the Roles of Post-Translational Modifications of Non-Histone Proteins” (J Med Chem, 2018).
